Active and inactive are the calls of the source.
Tests used:
[1] = human group III sPLA2 inhibitors, dose response, biochemical, QFRET, IC50 (AID 743457);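 note: green fluorescence rise as the enzyme cleaves BODIPY PC-A2 in liposomes; potency for inhibition of the enzyme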
[2] = target: Long-chain-fatty-acid--AMP ligase FadD28 (Mycobacterium tuberculosis, UniProt P9WQ59); assay: Fluorescence polarization aasay to screen for inhibitors that compete for the binding of FadD28 to a bisubstrate Measured in Biochemical System Using Plate Reader - 2147-01_Inhibitor_Dose_CherryPick_Activity.; format: functional, Mycobacterium tuberculosis H37Rv
[3] = inhibitors of HIV Env-driven cell fusion, dose response, cherry-pick (AID 652057); format: functional, cell-based
[4] = CEM21 lymphoblast cell cytotoxicity, dose response, cytotoxicity control for viral fusion inhibitor project, CellTiter-Glo luminescence, cherry-picked (AID 652042); format: functional, cell-based;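 note: potency for signal decrease meaning cytotoxicity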
[5] = ZM109 Env clade C HIV-1 fusion inhibitors, dose response, HeLa effector, CEM target cells, luciferase, cherry-pick (AID 652058); format: functional, cell-based
[6] = off-target signal loss in HeLa-CEM21 co-culture – HeLa F-luc CTL cells, cherry-picked, counter-screen for HIV-1 Env fusion inhibitor project, dose response (AID 652040); format: functional, cell-based;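 note: potency for signal decrease marking cytotoxic or nonspecific inhibition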
[7] = inhibitors of clade B AD8 Env fusion, dose response, cell-based, cherry-pick (AID 652062); format: functional;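 note: luciferase signal from cell-cell fusion driven by HIV-1 clade B AD8 Env; potency is for inhibitors of fusion seen as a drop in luminescence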
[8] = A549 cell cytotoxicity, dose response, cytotoxicity control, plate reader, cherry-pick, antagonist series (AID 743412); format: functional, cell-based
[9] = LGR2 antagonists, dose response, cell-based, HEK293, CRE-luciferase reporter, cherry pick, set 2 (AID 743343); format: functional;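 note: transfected cells were stimulated with diluted bursicon conditioned medium after compound addition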
[10] = MC4R antagonists, dose response, counter-screen for LGR2 antagonist project, cell-based, plate reader, cherry pick (AID 743444); format: functional;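 note: transfected HEK 293 cells stimulated with alpha-MSH peptide; potency of inhibitors of the alpha-MSH evoked signal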
[11] = target: Induced myeloid leukemia cell differentiation protein Mcl-1 (Homo sapiens, UniProt Q07820); format: functional
Protein RecA = target: T1, Protein RecA (Mycobacterium tuberculosis, UniProt P9WHJ3); assay: Fluorescence Cell-Free Homogeneous Dose Retest to Identify Inhibitors of RecA-Intein Splicing Activity. [Related pubchem assays (depositor defined):AID2097, AID2223, AID489010, AID492950]; format: functional
T1 sequence (P9WHJ3 whole entry): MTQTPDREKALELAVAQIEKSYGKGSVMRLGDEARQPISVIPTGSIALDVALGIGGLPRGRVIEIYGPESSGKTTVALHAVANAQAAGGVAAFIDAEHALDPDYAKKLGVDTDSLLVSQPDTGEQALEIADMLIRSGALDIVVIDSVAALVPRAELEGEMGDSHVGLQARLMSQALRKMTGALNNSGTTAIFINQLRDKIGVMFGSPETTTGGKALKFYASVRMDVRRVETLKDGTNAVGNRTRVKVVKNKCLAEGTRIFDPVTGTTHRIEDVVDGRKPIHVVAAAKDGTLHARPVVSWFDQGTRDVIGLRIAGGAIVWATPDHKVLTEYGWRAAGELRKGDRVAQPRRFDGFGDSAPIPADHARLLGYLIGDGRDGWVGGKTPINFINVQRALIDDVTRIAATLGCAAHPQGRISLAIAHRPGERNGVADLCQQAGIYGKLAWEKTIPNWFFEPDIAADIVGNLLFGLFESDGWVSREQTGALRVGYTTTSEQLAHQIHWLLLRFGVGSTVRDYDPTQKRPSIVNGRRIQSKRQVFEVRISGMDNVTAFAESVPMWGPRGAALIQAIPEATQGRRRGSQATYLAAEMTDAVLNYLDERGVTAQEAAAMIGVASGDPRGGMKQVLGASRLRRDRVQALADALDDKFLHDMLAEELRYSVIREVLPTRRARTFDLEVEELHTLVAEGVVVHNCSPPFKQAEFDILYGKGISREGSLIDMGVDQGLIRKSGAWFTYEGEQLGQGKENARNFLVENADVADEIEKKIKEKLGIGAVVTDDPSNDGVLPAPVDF

[12] = target: Histone-lysine N-methyltransferase NSD2 (Homo sapiens, UniProt O96028); format: biochemical
[13] = target: Arf-GAP with SH3 domain, ANK repeat and PH domain-containing protein 1 (Homo sapiens, UniProt Q9ULH1); format: functional;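 note: biochemical fluorescence polarization dose–response screen measuring inhibition of ASAP1; ASAP1 GAP domain stimulating GTP hydrolysis by truncated human ARF1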
[14] = target: T2, Carboxy-terminal domain RNA polymerase II polypeptide A small phosphatase 1 (Homo sapiens, UniProt Q9GZU7); assay: inhibitors of CTDSP1, concentration-response testing, biochemical assay, absorbance-based, actives from ultra-high-throughput screening (AID 540297); format: functional
T2 sequence (Q9GZU7 whole entry): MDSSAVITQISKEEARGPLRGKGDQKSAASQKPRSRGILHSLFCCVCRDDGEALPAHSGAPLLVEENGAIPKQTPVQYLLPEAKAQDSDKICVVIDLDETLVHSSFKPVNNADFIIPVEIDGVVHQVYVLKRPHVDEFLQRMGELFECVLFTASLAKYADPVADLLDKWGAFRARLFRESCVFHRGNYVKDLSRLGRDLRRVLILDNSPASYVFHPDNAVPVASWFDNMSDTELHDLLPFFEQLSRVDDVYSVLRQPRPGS

[15] = target: Tyrosine-protein phosphatase non-receptor type 11 (Homo sapiens, UniProt Q06124); assay: SHP2 phosphatase inhibition, dose response, selectivity assay for STEP inhibitor project, biochemical (AID 602367); format: functional; details: read-out: IC50_Mean
[16] = target: Tyrosine-protein phosphatase non-receptor type 5 (Homo sapiens, UniProt P54829); assay: STEP phosphatase inhibitors, confirmation, biochemical, fluorescence intensity, uHTS hits (AID 602372); format: functional; details: read-out: IC50_Mean
[17] = target: Dual specificity protein phosphatase 3 (Homo sapiens, UniProt P51452); assay: VHR phosphatase inhibition, dose response, selectivity assay for STEP inhibitor project, biochemical (AID 602374); format: functional; details: read-out: IC50_Mean
[18] = target: T3, Tyrosine-protein phosphatase non-receptor type 22 (Homo sapiens, UniProt Q9Y2R2); assay: PTPN22 phosphatase inhibition, dose response, selectivity assay for STEP inhibitor project, biochemical (AID 624241); format: functional
T3 sequence (Q9Y2R2 whole entry): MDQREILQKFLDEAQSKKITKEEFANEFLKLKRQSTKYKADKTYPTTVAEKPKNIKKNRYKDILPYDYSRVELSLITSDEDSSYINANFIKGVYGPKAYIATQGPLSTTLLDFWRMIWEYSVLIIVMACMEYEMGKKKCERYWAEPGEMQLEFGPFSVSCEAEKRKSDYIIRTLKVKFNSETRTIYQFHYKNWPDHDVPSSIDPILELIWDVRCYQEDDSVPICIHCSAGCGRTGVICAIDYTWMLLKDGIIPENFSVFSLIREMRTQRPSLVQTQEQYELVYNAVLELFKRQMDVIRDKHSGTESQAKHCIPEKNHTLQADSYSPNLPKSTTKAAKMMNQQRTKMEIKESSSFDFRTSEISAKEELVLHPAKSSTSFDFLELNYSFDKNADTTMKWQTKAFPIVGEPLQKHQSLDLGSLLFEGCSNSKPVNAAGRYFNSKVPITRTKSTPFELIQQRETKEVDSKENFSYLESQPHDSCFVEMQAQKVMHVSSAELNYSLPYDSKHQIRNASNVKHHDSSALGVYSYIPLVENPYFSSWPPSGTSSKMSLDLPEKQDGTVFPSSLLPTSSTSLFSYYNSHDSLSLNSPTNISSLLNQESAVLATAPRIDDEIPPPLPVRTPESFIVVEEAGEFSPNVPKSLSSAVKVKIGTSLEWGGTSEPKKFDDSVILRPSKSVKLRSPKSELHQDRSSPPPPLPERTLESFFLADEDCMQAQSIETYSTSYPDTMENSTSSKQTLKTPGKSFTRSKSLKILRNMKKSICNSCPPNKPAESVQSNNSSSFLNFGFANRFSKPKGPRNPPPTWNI

Chain of Histone-lysine N-methyltransferase NSD2 (O96028 whole entry, the tested form may be a part): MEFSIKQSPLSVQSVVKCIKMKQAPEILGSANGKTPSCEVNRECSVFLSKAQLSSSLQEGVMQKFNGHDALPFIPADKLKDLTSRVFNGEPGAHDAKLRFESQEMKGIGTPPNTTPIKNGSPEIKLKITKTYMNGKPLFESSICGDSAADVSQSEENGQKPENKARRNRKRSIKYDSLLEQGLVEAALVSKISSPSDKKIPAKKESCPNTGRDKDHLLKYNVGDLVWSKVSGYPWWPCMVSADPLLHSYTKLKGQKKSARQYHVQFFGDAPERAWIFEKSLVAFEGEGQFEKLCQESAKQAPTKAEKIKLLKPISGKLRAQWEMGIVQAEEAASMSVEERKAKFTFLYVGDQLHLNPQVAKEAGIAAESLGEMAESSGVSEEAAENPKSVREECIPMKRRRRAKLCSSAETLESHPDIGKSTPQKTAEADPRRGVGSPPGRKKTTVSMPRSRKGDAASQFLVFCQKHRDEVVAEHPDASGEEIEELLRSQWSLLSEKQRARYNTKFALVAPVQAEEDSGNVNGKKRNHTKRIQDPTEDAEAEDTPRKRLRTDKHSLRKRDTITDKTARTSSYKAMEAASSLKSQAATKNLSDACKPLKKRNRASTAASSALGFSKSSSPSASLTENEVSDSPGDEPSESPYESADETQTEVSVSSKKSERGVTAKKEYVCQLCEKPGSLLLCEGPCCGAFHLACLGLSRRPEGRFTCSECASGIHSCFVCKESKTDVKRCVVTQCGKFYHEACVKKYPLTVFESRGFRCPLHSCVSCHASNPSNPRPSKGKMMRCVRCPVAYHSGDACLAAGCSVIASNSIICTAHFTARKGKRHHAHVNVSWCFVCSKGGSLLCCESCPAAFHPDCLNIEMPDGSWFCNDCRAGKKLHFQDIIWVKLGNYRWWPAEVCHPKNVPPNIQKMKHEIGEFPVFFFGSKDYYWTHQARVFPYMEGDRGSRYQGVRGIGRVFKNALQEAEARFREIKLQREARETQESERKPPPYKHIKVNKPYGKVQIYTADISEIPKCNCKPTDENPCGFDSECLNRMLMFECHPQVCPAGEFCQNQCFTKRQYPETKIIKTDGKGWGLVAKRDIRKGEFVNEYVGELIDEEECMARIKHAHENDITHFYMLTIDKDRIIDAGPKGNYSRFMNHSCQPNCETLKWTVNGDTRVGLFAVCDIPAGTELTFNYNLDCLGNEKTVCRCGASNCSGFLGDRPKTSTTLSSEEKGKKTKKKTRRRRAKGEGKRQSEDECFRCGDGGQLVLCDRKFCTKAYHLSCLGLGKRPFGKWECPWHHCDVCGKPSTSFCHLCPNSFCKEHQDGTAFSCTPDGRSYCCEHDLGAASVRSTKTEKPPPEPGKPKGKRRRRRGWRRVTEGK
Chain of Induced myeloid leukemia cell differentiation protein Mcl-1 (Q07820 whole entry): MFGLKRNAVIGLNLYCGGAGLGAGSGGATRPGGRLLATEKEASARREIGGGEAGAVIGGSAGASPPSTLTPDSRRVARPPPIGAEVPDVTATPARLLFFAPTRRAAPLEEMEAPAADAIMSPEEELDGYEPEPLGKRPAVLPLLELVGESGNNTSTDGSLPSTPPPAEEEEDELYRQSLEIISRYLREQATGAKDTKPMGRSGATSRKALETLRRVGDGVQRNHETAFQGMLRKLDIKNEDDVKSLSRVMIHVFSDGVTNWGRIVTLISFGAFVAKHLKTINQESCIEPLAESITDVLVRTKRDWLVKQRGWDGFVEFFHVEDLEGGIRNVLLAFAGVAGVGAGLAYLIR
Chain of Dual specificity protein phosphatase 3 (P51452 whole entry): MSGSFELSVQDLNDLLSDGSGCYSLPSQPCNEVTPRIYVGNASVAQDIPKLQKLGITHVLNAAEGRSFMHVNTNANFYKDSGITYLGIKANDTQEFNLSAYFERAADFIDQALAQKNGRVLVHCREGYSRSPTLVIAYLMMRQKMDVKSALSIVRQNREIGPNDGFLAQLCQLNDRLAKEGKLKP
Chain of Long-chain-fatty-acid--AMP ligase FadD28 (P9WQ59 whole entry, the tested form may be a part): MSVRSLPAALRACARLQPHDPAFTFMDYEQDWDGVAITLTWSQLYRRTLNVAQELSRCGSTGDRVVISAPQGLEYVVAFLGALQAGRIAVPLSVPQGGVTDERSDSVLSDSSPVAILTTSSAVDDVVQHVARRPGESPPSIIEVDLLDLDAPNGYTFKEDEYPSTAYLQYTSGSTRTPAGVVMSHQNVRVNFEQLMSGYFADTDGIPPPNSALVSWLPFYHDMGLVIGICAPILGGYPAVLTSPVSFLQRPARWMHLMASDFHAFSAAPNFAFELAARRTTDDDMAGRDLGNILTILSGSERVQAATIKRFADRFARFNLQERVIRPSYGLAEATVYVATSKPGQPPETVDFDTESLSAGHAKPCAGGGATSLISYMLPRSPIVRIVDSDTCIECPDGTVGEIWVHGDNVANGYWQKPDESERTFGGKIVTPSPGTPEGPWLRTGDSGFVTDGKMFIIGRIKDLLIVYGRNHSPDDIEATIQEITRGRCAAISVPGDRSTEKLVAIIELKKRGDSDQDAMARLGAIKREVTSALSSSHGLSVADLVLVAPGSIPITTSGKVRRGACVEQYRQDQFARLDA
Chain of Tyrosine-protein phosphatase non-receptor type 5 (P54829 whole entry): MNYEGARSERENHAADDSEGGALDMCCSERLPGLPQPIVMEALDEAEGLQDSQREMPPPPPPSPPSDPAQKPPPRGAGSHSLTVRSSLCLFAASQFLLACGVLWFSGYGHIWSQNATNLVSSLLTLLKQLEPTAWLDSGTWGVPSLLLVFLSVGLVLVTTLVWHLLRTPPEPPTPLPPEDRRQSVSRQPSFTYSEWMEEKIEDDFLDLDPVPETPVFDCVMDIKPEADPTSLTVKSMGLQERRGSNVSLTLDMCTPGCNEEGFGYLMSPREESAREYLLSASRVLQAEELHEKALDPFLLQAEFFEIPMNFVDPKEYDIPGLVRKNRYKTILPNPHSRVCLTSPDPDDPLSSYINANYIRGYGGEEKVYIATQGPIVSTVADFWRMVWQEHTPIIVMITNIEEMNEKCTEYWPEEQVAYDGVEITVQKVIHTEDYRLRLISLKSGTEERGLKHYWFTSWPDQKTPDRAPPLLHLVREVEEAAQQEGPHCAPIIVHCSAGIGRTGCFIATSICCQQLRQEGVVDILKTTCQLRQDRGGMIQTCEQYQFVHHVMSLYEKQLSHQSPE
Chain of Tyrosine-protein phosphatase non-receptor type 11 (Q06124 whole entry): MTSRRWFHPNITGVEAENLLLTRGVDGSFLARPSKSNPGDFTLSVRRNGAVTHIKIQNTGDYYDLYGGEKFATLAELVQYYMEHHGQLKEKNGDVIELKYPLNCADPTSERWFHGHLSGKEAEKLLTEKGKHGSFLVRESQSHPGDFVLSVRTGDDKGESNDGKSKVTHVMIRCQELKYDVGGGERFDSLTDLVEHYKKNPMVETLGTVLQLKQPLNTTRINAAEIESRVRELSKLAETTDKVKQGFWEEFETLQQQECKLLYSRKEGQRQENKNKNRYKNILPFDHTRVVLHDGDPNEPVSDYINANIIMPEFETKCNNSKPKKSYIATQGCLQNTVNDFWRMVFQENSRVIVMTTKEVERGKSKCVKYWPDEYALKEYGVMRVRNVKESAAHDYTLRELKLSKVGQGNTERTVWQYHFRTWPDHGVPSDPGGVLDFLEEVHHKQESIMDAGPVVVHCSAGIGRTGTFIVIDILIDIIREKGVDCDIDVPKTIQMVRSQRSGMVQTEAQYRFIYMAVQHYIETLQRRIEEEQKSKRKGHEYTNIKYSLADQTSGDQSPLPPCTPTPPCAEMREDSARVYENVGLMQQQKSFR
Chain of Arf-GAP with SH3 domain, ANK repeat and PH domain-containing protein 1 (Q9ULH1 whole entry, the tested form may be a part): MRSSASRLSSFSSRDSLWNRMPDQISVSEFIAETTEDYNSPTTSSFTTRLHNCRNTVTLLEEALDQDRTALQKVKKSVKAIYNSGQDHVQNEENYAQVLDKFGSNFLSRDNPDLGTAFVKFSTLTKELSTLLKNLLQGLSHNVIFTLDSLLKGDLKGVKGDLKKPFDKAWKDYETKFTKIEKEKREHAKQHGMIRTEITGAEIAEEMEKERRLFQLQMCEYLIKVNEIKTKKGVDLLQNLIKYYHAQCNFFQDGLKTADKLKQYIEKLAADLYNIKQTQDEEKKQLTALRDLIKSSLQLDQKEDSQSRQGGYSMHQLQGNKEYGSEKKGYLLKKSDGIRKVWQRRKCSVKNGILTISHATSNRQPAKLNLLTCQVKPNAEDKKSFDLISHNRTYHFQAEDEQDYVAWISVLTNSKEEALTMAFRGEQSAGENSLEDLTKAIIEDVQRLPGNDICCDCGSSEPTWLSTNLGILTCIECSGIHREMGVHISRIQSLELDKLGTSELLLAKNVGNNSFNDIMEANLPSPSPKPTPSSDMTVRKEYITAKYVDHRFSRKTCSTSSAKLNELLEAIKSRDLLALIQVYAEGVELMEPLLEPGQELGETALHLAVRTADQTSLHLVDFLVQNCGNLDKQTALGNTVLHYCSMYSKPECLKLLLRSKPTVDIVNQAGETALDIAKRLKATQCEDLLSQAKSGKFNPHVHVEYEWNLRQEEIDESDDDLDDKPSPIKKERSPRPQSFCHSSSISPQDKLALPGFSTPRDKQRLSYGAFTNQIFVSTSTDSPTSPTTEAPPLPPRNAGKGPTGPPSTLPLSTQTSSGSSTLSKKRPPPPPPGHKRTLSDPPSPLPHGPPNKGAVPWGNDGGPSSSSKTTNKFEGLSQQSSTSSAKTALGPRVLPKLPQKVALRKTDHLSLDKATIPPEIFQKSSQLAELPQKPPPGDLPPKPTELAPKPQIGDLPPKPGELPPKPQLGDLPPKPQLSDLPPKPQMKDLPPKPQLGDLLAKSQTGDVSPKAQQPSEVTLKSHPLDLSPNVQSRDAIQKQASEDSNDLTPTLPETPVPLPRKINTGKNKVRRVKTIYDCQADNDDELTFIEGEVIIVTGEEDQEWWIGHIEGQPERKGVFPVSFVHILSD

O=C(NNc1nc2cc3c(cc2s1)OCO3)c1ccc(F)cc1
IC50 [1]: > 122 µM (inactive)

Cc1ccc(CSCCNC(=O)c2ccc(N(C)S(=O)(=O)c3ccccc3)cc2)cc1
AC50 [2]: 7.13 µM (active)

Cc1ccc2nc(NC(=O)C3CCN(S(=O)(=O)c4cccs4)CC3)sc2c1
AC50 [3]: 46.5 µM (active) | AC50 [4]: 69.6 µM (active) | AC50 [5]: 13.9 µM (active) | AC50 [6]: > 70 µM (inactive) | AC50 [7]: 3.05 µM (active)

O=C(NCCc1ccc(Cl)cc1)c1ccc2c(c1)OCCO2
AC50 [8]: > 52 µM (inactive) | AC50 [9]: 20.1 µM (active) | AC50 [10]: 21.2 µM (active)

CCOC(=O)C1CCN(c2nc(N)c3c(N)nc(SCC(=O)O)cc3c2C#N)CC1
IC50 [11]: 4.87 µM (active) | EC50 (Protein RecA): > 380 µM (inactive) | AC50 [12]: 6.04 µM (active)

COc1cc(/C=C2/SC(N)=NC2=O)ccc1Oc1ccc([N+](=O)[O-])cc1[N+](=O)[O-]
IC50 [13]: 54.9 µM (inactive)

CCOC(=O)CN1C(=O)S/C(=C/c2ccc(OCc3ccc(C(=O)O)cc3)cc2)C1=O
IC50 [14]: 3.74 µM (active) | IC50 [15]: 3.24 µM (active) | IC50 [16]: 25.4 µM (inactive) | IC50 [17]: 4.27 µM (active) | IC50 [18]: 50.6 µM (inactive)
